Earlier results as cited in patent US8409558B2, “Method for treatment of onychomycosis” (priority 2005, dated 2013).

System: onychomycosis (nail fungus)

**Q.** Which results are given for `CN(C/C=C/C#CC(C)(C)C)Cc1cccc2ccccc12` [Lamisil, terbinafine]?
**A.** complete cure (continuous oral therapy): 41%; mycological cure (continuous oral therapy): 71%; cure of all nails (complete cure of all nails after 1 yr; % effective) (oral therapy, Warshaw et al. JAAD October 2005): 25%
